Assay results: patent US8168651B2, “Protein kinase modulators” (Cylene Pharmaceuticals, Inc., priority 2008, dated 2012)
Where two headings read alike, the source gives them in different places.

Key:
[1] = target: PARP-HSA enzyme (Homo sapiens (Human), UniProt P09874); test: PARP assay (chemiluminescent PARP assay kit, Trevigen); format: biochemical; settings: for IC50: read-out: PARP Inhibition IC50
Experimental: Modulatory activity of compounds described herein was assessed in vitro in cell-free CK2 assays. Modulatory activity of compounds described herein also are assessed in vitro in cell-free PARP assays. These assays are described hereafter.
PARP assays are conducted using a chemiluminescent PARP assay kit (Trevigen). Briefly, reactions are performed in Histone-coated strip wells, by adding 10 microliters test compound dissolved in 1×PARP Buffer (prepared by mixing 20×PARP buffer diluted with high-purity water) and 15 microliters diluted PARP-HSA enzyme (diluted in 1×PARP buffer, 0.1 unit per well) to 25 microliters PARP cocktail (prepared from 10×PARP cocktail and 10× activated DNA, both 2.5 microliters per well and 20 microliters per well of 1×PARP buffer). The reactions are incubated at ambient temperature for 60 minutes, then the liquid was removed. After washing the wells four times with PBS (200 ul), 50 microliters of STREP-HRP (Horseradish Peroxidase) solution (diluted 500-fold in 1× Strep-Diluent) was added and the reactions were allowed to incubate for 30 minutes at ambient temperature. The liquid was removed and, after washing the wells four times with PBS (200 ul), 50 microliters each of PeroxyGlo A and B (Chemiluminescent Horseradish Peroxidase substrates) are added and the resulting chemiluminescence quantified on the SpectraMax M5 plate reader.

[2] = target: recombinant human CK2 (Homo sapiens (Human), UniProt P68400); test: CK2 assay (cell-free, 33P-ATP filter plate); format: biochemical; settings: 10 uM; read-out: CK2 % inhib @ 10 uM
Chain of recombinant human CK2 (P68400 whole entry): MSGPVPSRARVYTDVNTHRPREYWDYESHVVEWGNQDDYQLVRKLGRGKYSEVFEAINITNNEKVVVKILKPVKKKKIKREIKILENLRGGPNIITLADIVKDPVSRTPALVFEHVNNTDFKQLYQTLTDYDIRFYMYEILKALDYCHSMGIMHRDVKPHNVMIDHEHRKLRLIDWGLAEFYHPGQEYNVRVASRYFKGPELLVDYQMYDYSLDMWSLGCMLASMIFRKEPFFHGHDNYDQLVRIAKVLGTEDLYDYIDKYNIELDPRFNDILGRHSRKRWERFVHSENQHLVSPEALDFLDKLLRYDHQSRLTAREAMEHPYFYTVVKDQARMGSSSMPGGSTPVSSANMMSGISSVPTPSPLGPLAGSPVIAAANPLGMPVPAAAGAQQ
Chain of recombinant human CK2 (P67870 whole entry partner): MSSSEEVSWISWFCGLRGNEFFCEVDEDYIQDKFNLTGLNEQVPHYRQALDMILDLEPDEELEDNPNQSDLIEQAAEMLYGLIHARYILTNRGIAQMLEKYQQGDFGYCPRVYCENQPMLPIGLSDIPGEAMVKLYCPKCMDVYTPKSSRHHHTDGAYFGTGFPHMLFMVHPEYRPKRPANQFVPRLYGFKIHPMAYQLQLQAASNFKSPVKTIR

[3] = target: recombinant human PIM1 (Homo sapiens (Human), UniProt P11309); test: PIM-1 kinase activity in cell-free in vitro assay; format: biochemical; settings: cell-free; for inhibition at 0.5 µM: 500 nM compound, read-out: PIM-1: % inh 500 nM
Chain of recombinant human PIM1 (P11309 whole entry): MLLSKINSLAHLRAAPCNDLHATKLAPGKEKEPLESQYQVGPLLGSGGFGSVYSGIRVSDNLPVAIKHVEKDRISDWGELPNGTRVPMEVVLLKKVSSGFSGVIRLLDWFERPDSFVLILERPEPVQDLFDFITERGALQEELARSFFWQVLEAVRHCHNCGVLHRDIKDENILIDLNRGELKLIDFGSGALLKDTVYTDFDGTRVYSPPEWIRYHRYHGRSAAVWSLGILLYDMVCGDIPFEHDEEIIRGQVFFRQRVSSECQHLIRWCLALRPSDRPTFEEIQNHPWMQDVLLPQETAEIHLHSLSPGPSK

[4] = system: Jurkat; test: Cell proliferation modulatory activity, Jurkat; format: cell-based; settings: Homo sapiens
[5] = system: HCT-116 human colorectal carcinoma cells; test: Cell-proliferation assay using Alamar Blue dye; format: cell-based; settings: Homo sapiens;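 note: cells exposed to compound for about 4 days, then Alamar Blue added and dye fluorescence read after about 4 h, compared with medium-only control wells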
[6] = system: K-562; test: Cell proliferation modulatory activity, K-562; format: cell-based; settings: Homo sapiens, K562
[7] = system: MV-4-11; test: Cell proliferation modulatory activity, MV-4-11; format: cell-based; settings: Homo sapiens, MV4-11
[8] = target: Flt3 (Homo sapiens (Human), UniProt P36888); test: FLT-3 kinase activity in cell free in vitro assay; format: biochemical; settings: cell-free; read-out: FLT-3
Chain of Flt3 (P36888 27-993): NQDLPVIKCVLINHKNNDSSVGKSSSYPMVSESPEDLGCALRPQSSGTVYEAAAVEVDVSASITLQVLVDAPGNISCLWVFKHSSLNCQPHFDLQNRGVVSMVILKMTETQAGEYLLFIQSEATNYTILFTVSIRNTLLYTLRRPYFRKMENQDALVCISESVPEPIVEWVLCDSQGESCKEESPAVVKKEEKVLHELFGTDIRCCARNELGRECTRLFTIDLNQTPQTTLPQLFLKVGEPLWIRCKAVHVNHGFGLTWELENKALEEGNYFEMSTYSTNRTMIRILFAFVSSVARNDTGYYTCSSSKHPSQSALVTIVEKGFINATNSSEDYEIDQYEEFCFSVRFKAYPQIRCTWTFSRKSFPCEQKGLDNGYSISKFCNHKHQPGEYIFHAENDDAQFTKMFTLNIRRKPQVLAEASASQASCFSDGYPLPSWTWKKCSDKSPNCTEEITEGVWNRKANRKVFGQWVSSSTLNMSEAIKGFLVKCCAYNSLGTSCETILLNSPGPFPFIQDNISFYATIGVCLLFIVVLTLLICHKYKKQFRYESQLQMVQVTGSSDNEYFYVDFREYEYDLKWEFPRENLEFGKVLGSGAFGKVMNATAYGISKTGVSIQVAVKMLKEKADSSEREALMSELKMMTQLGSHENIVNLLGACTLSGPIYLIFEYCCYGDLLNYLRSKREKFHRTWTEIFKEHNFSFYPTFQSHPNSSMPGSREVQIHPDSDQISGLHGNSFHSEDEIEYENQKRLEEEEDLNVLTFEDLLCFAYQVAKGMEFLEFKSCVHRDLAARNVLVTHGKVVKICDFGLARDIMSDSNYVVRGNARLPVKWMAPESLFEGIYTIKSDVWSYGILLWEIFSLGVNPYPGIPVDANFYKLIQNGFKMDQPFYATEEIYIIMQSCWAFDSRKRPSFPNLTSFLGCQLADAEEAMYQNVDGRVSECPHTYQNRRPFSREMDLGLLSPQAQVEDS

[9] = HCT-116, read-out: HCT-116 (uM), cell proliferation modulatory activity, HCT-116, second column

Chain of PARP-HSA enzyme (P09874 whole entry): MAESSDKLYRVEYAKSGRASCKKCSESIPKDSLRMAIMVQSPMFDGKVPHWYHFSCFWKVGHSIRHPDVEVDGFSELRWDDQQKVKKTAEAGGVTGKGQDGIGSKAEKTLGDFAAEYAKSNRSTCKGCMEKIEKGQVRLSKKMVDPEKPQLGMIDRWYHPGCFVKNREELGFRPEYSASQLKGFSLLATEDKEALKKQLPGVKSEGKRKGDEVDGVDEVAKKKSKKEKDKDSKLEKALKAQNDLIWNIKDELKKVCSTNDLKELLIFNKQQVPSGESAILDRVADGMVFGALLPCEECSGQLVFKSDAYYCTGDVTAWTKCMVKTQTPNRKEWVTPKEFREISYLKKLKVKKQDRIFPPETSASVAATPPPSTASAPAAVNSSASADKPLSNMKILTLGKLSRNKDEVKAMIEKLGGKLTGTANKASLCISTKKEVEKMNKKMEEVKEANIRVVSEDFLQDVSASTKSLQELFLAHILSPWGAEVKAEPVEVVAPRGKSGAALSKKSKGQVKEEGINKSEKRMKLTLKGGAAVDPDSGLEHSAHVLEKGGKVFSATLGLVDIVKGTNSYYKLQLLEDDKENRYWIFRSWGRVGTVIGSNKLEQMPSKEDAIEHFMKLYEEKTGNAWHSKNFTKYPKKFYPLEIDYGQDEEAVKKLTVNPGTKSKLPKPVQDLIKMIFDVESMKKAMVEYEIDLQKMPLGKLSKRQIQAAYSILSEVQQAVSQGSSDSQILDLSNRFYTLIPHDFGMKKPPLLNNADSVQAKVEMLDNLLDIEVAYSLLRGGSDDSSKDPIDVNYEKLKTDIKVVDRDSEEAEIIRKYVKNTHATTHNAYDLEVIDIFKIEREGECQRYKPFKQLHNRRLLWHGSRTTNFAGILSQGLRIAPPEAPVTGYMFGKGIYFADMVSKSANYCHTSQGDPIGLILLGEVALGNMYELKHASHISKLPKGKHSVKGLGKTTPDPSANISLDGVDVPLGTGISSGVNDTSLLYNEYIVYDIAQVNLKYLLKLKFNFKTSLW

In the case of O=c1[nH]c2cc(-c3nnn[nH]3)ccc2c2ccccc12, the IC50 [1] is reported as 30 nM.
Compound O=C(O)c1ccc2c(c1)[nH]c(=O)c1ccncc12 has an IC50 [1] of 1000 nM.
In the case of O=C(Nc1ccccc1)c1ccc2c(c1)[nH]c(=O)c1ccsc12, the inhibition at 10 µM [2] is reported as 22% and the “PARP % inhib @ 1 uM” value [1] is reported as 0%.
COc1ccc(NC(=O)c2ccc3c(c2)[nH]c(=O)c2ccsc23)c(OC)c1 was tested, and the inhibition at 10 µM [2] was 3% and the “PARP % inhib @ 1 uM” value [1] was 0%.
O=C(Nc1ccc(N2CCOCC2)cc1)c1ccc2c(c1)[nH]c(=O)c1ccsc12 was tested, and the inhibition at 10 µM [2] was -3% and the “PARP % inhib @ 1 uM” value [1] was 0%.
With O=C(O)c1ccc2c3sccc3c(=O)n(CCCO)c2c1 the “PARP % inhib @ 1 uM” value [1] was 21%.
O=c1[nH]c2cc(-c3nn[nH]n3)ccc2c2sccc12 was tested, and the “PARP % inhib @ 1 uM” value [1] was 39%.
For CN(C)CCn1c(=O)c2ccsc2c2ccc(C(=O)O)cc21, the “PARP % inhib @ 1 uM” value [1] was 5%.
O=C(O)c1ccc2c(c1)nc(Nc1ccccc1)c1ccsc12 showed an inhibition at 0.5 µM [3] of 15.7%, an IC50 [3] of 454 nM and an IC50 [4] of 6.12 µM. For the same compound, the IC50 ([5]; HCT-116, read-out: HCT-116 (uM), cell proliferation modulatory activity, HCT-116, first column) was 10 µM, the IC50 [5, 9] was greater than 10 µM and the IC50 [6] was greater than 10 µM. It also gave an IC50 [7] of 8.33 µM.
c1ccc(Nc2nc3cc(-c4nnc[nH]4)ccc3c3sccc23)cc1 showed an inhibition at 0.5 µM [3] of -3.3%, an IC50 [4] of 7.6 µM and an IC50 ([5]; HCT-116, HCT-116, second column, read-out: HCT-116 (uM), cell proliferation modulatory activity) of 4.9 µM. For the same compound, the IC50 [6] was 6.26 µM.
For Clc1cccc(Nc2nc3cc(-c4nnn[nH]4)ccc3c3sccc23)c1, the inhibition at 0.5 µM [3] was 83.3%, the IC50 [3] was 345 nM and the IC50 [4] was 8.89 µM.
CNC(=O)c1cccc(Nc2nc3cc(-c4nnn[nH]4)ccc3c3sccc23)c1 showed an inhibition at 0.5 µM [3] of 81.7%, an IC50 [3] of 329 nM and an IC50 [4] of 4.22 µM. It also gave an IC50 [5, 9] greater than 10 µM.
Compound COC(=O)c1ccc2c(c1)nc(Nc1ccccc1)c1ccncc12 has an inhibition at 0.5 µM [3] of -3.02% and an IC50 [4] of 0.683 µM.
COc1cccc(Nc2nc3cc(C(=O)O)ccc3c3cnccc23)c1 showed an inhibition at 0.5 µM [3] of 75.9%, an IC50 [3] of 88 nM and an IC50 [4] of 6.52 µM. The IC50 [8] was 9 nM, the IC50 [6] was 5.86 µM and the IC50 [7] was 1.12 µM.
Compound O=C(O)c1ccc2c(c1)nc(Nc1ccc(F)c(Cl)c1)c1ccncc12 has an inhibition at 0.5 µM [3] of 82%, an IC50 [3] of 115 nM and an IC50 [4] of 2.68 µM. For the same compound, the IC50 [5, 9] was 4.34 µM, the IC50 [8] was 41 nM and the IC50 [6] was 7.44 µM. It also gave an IC50 [7] of 1.7 µM.
COC(=O)c1ccc2c(c1)nc(Nc1ccc(F)c(Cl)c1)c1ccncc12 gave an inhibition at 0.5 µM [3] of 10.2%, an IC50 [4] of 4.25 µM and an IC50 [5, 9] of 3.94 µM.
For COC(=O)c1ccc2c(c1)nc(Nc1cccc(OC)c1)c1ccncc12, the inhibition at 0.5 µM [3] was 19.4% and the IC50 [4] was 3.4 µM.
Compound O=C(O)c1ccc2c(c1)nc(Nc1ccc(F)c(Cl)c1)c1ncncc12 has an inhibition at 0.5 µM [3] of 54.8%, an IC50 [3] of 368 nM and an IC50 [4] of 4.29 µM.
Compound O=C(O)c1ccc2c(c1)nc(Nc1cc(F)cc(F)c1)c1ccsc12 has an inhibition at 0.5 µM [3] of 84.4%, an IC50 [3] of 82 nM and an IC50 [4] of 5.86 µM. The IC50 [5, 9] was greater than 10 µM, the IC50 [6] was greater than 10 µM and the IC50 [7] was 0.333 µM.
With O=C(O)c1ccc2c(c1)nc(Nc1cccc(F)c1)c1ccsc12 the inhibition at 0.5 µM [3] was 82.7%, the IC50 [3] was 136 nM and the IC50 [4] was 5.92 µM. For the same compound, the IC50 [5, 9] was greater than 10 µM, the IC50 [6] was greater than 10 µM and the IC50 [7] was 0.475 µM.
For CNC(=O)c1cccc(Nc2nc3cc(C(=O)O)ccc3c3sccc23)c1, the inhibition at 0.5 µM [3] was 18.3%, the IC50 [4] was 8.69 µM and the IC50 [5, 9] was greater than 10 µM.
O=C(O)c1ccc2c(c1)nc(Nc1cccc(F)c1)c1ccncc12 showed an inhibition at 0.5 µM [3] of 96.1%, an IC50 [3] of 143 nM and an IC50 [4] of 3.2 µM. It also gave an IC50 [6] greater than 10 µM and an IC50 [7] of 2.28 µM.
In the case of O=C(NC1CC1)c1cccc(Nc2nc3cc(-c4nnn[nH]4)ccc3c3sccc23)c1, the inhibition at 0.5 µM [3] is reported as 46.8%, the IC50 [4] is reported as 6.97 µM and the IC50 [5, 9] is reported as greater than 10 µM.
